The text below walks through data of patent publication US9365619B2, “IgG-binding peptide and method for detecting and purifying IgG using same” (Otsuka Chemical Co., Ltd., priority 2011, dated 2016).

The target in the experiment is human IgG. The experiment is described as follows: Surface plasmon resonance (SPR) analysis of synthetic peptide binding to human IgG. To be noted: for Kd: SPR, synthetic peptide binding to human IgG, read-out: Kd; for affinity compared with the original peptide, in words: compared with GFc-C35-3/15. The procedure:
In order to narrow down the amino acid region to be studied, a peptide in which one amino acid was deleted from each end of GFc-C35 (GFc-C35-2/16) and a peptide in which two amino acids were deleted from each end of CFc-C35 (GFc-C35-3/15) were synthesized. Among these peptides, based on the GFc-C35-3/15 synthetic peptide, the effect of the introduction of amino acid mutations on affinity was evaluated. That is, the contribution of each amino acid substitution to affinity was evaluated by synthesizing peptides substituted with frequently or occasionally observed amino acids obtained from the phage libraries and subjecting the resulting synthetic peptides to binding analysis.
Based on the synthetic peptide C35A, peptides substituted with amino acids observed at high frequency in the aforementioned phage libraries were synthesized by introducing amino acid mutations, and in a similar manner to the above, their binding to human IgG was analyzed by surface plasmon resonance (SPR) analysis to evaluate the contribution of each amino acid substitution to affinity.

Bridge positions count the residues as written; N and C are the ends. Peptide text beside a SMILES is read from it.

Usually Kd stands for the concentration at which binding is half-saturated. As to `CC(C)C[C@@H]1NC(=O)[C@H](CCC(=O)O)NC(=O)CNC(=O)[C@H](CCCNC(=N)N)NC(=O)[C@H](Cc2c[nH]cn2)NC(=O)[C@H](Cc2ccc(O)cc2)NC(=O)[C@H](C)NC(=O)[C@@H](NC(=O)[C@H](CCCNC(=N)N)NC(=O)[C@@H]2CCCN2C(=O)CN)CSSC[C@@H](C(=O)N[C@@H](CO)C(=O)N[C@@H](Cc2ccccc2)C(=O)N[C@@H](Cc2c[nH]cn2)C(N)=O)NC(=O)[C@H](Cc2c[nH]c3ccccc23)NC(=O)[C@H](C(C)C)NC1=O` [C35A (D3R, T15S), GPRCAYHRGELVWCSFH] (H-GPRCAYHRGELVWCSFH-NH2; disulfide 4-14), the Kd stood at 42 nM.
For `CC(C)C[C@@H]1NC(=O)[C@H](CCC(=O)O)NC(=O)CNC(=O)[C@H](CCCNC(=N)N)NC(=O)[C@H](Cc2c[nH]cn2)NC(=O)[C@H](Cc2ccc(O)cc2)NC(=O)[C@H](C)NC(=O)[C@@H](NC(=O)[C@H](CO)NC(=O)[C@@H]2CCCN2C(=O)CN)CSSC[C@@H](C(=O)N[C@H](C(=O)N[C@@H](Cc2ccccc2)C(=O)N[C@@H](Cc2c[nH]cn2)C(N)=O)[C@@H](C)O)NC(=O)[C@H](Cc2c[nH]c3ccccc23)NC(=O)[C@H](C(C)C)NC1=O` [C35A (D3S), GPSCAYHRGELVWCTFH] (H-GPSCAYHRGELVWCTFH-NH2; disulfide 4-14), the Kd was 28.5 nM.
As to `CC(C)C[C@@H]1NC(=O)[C@H](CCC(=O)O)NC(=O)CNC(=O)[C@H](CCCNC(=N)N)NC(=O)[C@H](Cc2c[nH]cn2)NC(=O)[C@H](Cc2ccc(O)cc2)NC(=O)[C@H](C)NC(=O)[C@@H](NC(=O)[C@H](CC(=O)O)NC(=O)[C@@H]2CCCN2C(=O)CN)CSSC[C@@H](C(=O)N[C@H](C(=O)N[C@@H](Cc2c[nH]cn2)C(=O)N[C@@H](Cc2c[nH]cn2)C(N)=O)[C@@H](C)O)NC(=O)[C@H](Cc2c[nH]c3ccccc23)NC(=O)[C@H](C(C)C)NC1=O` [C35A (F16H), GPDCAYHRGELVWCTHH] (H-GPDCAYHRGELVWCTHH-NH2; disulfide 4-14), the Kd was determined as 11.4 nM.
As for `CC(C)C[C@@H]1NC(=O)[C@H](CCC(=O)O)NC(=O)CNC(=O)[C@H](CCCNC(=N)N)NC(=O)[C@H](Cc2c[nH]cn2)NC(=O)[C@H](Cc2ccc(O)cc2)NC(=O)[C@H](C)NC(=O)[C@@H](NC(=O)[C@H](CC(=O)O)NC(=O)[C@@H]2CCCN2C(=O)[C@@H](N)CO)CSSC[C@@H](C(=O)N[C@H](C(=O)N[C@@H](Cc2ccccc2)C(=O)N[C@@H](Cc2c[nH]cn2)C(N)=O)[C@@H](C)O)NC(=O)[C@H](Cc2c[nH]c3ccccc23)NC(=O)[C@H](C(C)C)NC1=O` [C35A (G1S), SPDCAYHRGELVWCTFH] (H-SPDCAYHRGELVWCTFH-NH2; disulfide 4-14), the Kd is 9.3 nM.
As for `CC(C)C[C@@H]1NC(=O)[C@H](CCC(=O)O)NC(=O)CNC(=O)[C@H](CCCNC(=N)N)NC(=O)[C@H](Cc2c[nH]cn2)NC(=O)[C@H](Cc2ccc(O)cc2)NC(=O)[C@H](C)NC(=O)[C@@H](NC(=O)[C@H](CC(=O)O)NC(=O)[C@@H]2CCCN2C(=O)[C@@H](N)CO)CSSC[C@@H](C(=O)N[C@H](C(=O)N[C@@H](Cc2ccccc2)C(=O)N[C@@H](Cc2ccc(O)cc2)C(N)=O)[C@@H](C)O)NC(=O)[C@H](Cc2c[nH]c3ccccc23)NC(=O)[C@H](C(C)C)NC1=O` [C35A (G1S, H17Y), SPDCAYHRGELVWCTFY] (H-SPDCAYHRGELVWCTFY-NH2; disulfide 4-14), the Kd turned out to be 11 nM.
Consider `CC(C)C[C@@H]1NC(=O)[C@H](CCC(=O)O)NC(=O)CNC(=O)[C@H](CCCNC(=N)N)NC(=O)[C@H](Cc2c[nH]cn2)NC(=O)[C@H](Cc2ccc(O)cc2)NC(=O)[C@H](C)NC(=O)[C@@H](NC(=O)[C@H](CC(=O)O)NC(=O)[C@@H]2CCCN2C(=O)CN)CSSC[C@@H](C(=O)N[C@H](C(=O)N[C@@H](Cc2ccccc2)C(=O)N[C@@H](Cc2ccc(O)cc2)C(N)=O)[C@@H](C)O)NC(=O)[C@H](Cc2c[nH]c3ccccc23)NC(=O)[C@H](C(C)C)NC1=O` [C35A (H17Y), GPDCAYHRGELVWCTFY] (H-GPDCAYHRGELVWCTFY-NH2; disulfide 4-14), for which the Kd turned out to be 12 nM.
Take `CC(C)C[C@@H]1NC(=O)[C@H](CCC(=O)O)NC(=O)CNC(=O)[C@H](CCCNC(=N)N)NC(=O)[C@H](Cc2c[nH]cn2)NC(=O)[C@H](Cc2ccc(O)cc2)NC(=O)[C@H](C)NC(=O)[C@@H](NC(=O)[C@H](CC(=O)O)NC(=O)[C@H](CC(=O)O)NC(=O)CN)CSSC[C@@H](C(=O)N[C@H](C(=O)N[C@@H](Cc2ccccc2)C(=O)N[C@@H](Cc2c[nH]cn2)C(N)=O)[C@@H](C)O)NC(=O)[C@H](Cc2c[nH]c3ccccc23)NC(=O)[C@H](C(C)C)NC1=O` [C35A (P2D), GDDCAYHRGELVWCTFH] (H-GDDCAYHRGELVWCTFH-NH2; disulfide 4-14): the Kd came out at 13.3 nM.
Consider `CC(C)C[C@@H]1NC(=O)[C@H](CCC(=O)O)NC(=O)CNC(=O)[C@H](CCCNC(=N)N)NC(=O)[C@H](Cc2c[nH]cn2)NC(=O)[C@H](Cc2ccc(O)cc2)NC(=O)[C@H](C)NC(=O)[C@@H](NC(=O)[C@H](CC(=O)O)NC(=O)[C@H](CC(=O)O)NC(=O)[C@@H](N)CO)CSSC[C@@H](C(=O)N[C@H](C(=O)N[C@@H](Cc2ccccc2)C(=O)N[C@@H](Cc2ccc(O)cc2)C(N)=O)[C@@H](C)O)NC(=O)[C@H](Cc2c[nH]c3ccccc23)NC(=O)[C@H](C(C)C)NC1=O` [C35A (P2D, H17Y), SDDCAYHRGELVWCTFY] (H-SDDCAYHRGELVWCTFY-NH2; disulfide 4-14), for which the Kd is 13 nM.
As for `CC(C)C[C@@H]1NC(=O)[C@H](CCC(=O)O)NC(=O)CNC(=O)[C@H](CCCNC(=N)N)NC(=O)[C@H](Cc2c[nH]cn2)NC(=O)[C@H](Cc2ccc(O)cc2)NC(=O)[C@H](C)NC(=O)[C@@H](NC(=O)[C@H](CC(=O)O)NC(=O)[C@@H]2CCCN2C(=O)CN)CSSC[C@@H](C(=O)N[C@@H](CO)C(=O)N[C@@H](Cc2ccccc2)C(=O)N[C@@H](Cc2c[nH]cn2)C(N)=O)NC(=O)[C@H](Cc2c[nH]c3ccccc23)NC(=O)[C@H](C(C)C)NC1=O` [C35A (T15S), GPDCAYHRGELVWCSFH] (H-GPDCAYHRGELVWCSFH-NH2; disulfide 4-14), the Kd is 14.4 nM.
On the same count and under the same terms, for `CC(C)C[C@@H]1NC(=O)[C@H](CC(N)=O)NC(=O)CNC(=O)[C@H](CC(N)=O)NC(=O)[C@H]([C@@H](C)O)NC(=O)[C@H](Cc2ccc(O)cc2)NC(=O)[C@H]([C@@H](C)O)NC(=O)[C@@H](NC(=O)[C@H](CC(=O)O)NC(=O)[C@@H]2CCCN2C(=O)CN)CSSC[C@@H](C(=O)N[C@H](C(=O)N[C@@H](Cc2ccccc2)C(=O)N[C@@H](Cc2c[nH]cn2)C(N)=O)[C@@H](C)O)NC(=O)[C@H](Cc2c[nH]c3ccccc23)NC(=O)[C@H](C(C)C)NC1=O` [GFc-C35, GPDCTYTNGNLVWCTFH] (H-GPDCTYTNGNLVWCTFH-NH2; disulfide 4-14) the value was 14000 nM.
In the case of `CC(C)C[C@@H]1NC(=O)[C@H](CC(N)=O)NC(=O)CNC(=O)[C@H](CC(N)=O)NC(=O)[C@H]([C@@H](C)O)NC(=O)[C@H](Cc2ccc(O)cc2)NC(=O)[C@H]([C@@H](C)O)NC(=O)[C@@H](NC(=O)[C@H](CC(=O)O)NC(=O)[C@@H]2CCCN2)CSSC[C@@H](C(=O)N[C@H](C(=O)N[C@@H](Cc2ccccc2)C(N)=O)[C@@H](C)O)NC(=O)[C@H](Cc2c[nH]c3ccccc23)NC(=O)[C@H](C(C)C)NC1=O` [GFc-C35-2/16, PDCTYTNGNLVWCTF] (H-PDCTYTNGNLVWCTF-NH2; disulfide 3-13), the Kd was 25000 nM.
As for `CC(C)C[C@@H]1NC(=O)[C@H](CC(N)=O)NC(=O)CNC(=O)[C@H](CC(N)=O)NC(=O)[C@H]([C@@H](C)O)NC(=O)[C@H](Cc2ccc(O)cc2)NC(=O)[C@H]([C@@H](C)O)NC(=O)[C@@H](NC(=O)[C@@H](N)CCCNC(=N)N)CSSC[C@@H](C(=O)N[C@H](C(N)=O)[C@@H](C)O)NC(=O)[C@H](Cc2c[nH]c3ccccc23)NC(=O)[C@H](C(C)C)NC1=O` [GFc-C35-3/15 (D3R), RCTYTNGNLVWCT] (H-RCTYTNGNLVWCT-NH2; disulfide 2-12), the Kd was determined as 69000 nM and the “affinity compared with the original peptide, in words” value is “an increase in affinity”.
The matching figures for `CSCC[C@@H]1NC(=O)[C@H](CC(N)=O)NC(=O)CNC(=O)[C@H](CC(N)=O)NC(=O)[C@H]([C@@H](C)O)NC(=O)[C@H](Cc2ccc(O)cc2)NC(=O)[C@H]([C@@H](C)O)NC(=O)[C@@H](NC(=O)[C@@H](N)CC(=O)O)CSSC[C@@H](C(=O)N[C@H](C(N)=O)[C@@H](C)O)NC(=O)[C@H](Cc2c[nH]c3ccccc23)NC(=O)[C@H](C(C)C)NC1=O` [GFc-C35-3/15 (L11M), DCTYTNGNMVWCT] (H-DCTYTNGNMVWCT-NH2; disulfide 2-12): 280000 nM and “a decrease in affinity”.
`CC(C)C[C@@H]1NC(=O)[C@H](CC(N)=O)NC(=O)CNC(=O)[C@H](CC(C)C)NC(=O)[C@H]([C@@H](C)O)NC(=O)[C@H](Cc2ccc(O)cc2)NC(=O)[C@H]([C@@H](C)O)NC(=O)[C@@H](NC(=O)[C@@H](N)CC(=O)O)CSSC[C@@H](C(=O)N[C@H](C(N)=O)[C@@H](C)O)NC(=O)[C@H](Cc2c[nH]c3ccccc23)NC(=O)[C@H](C(C)C)NC1=O` [GFc-C35-3/15 (N8L), DCTYTLGNLVWCT] (H-DCTYTLGNLVWCT-NH2; disulfide 2-12): the Kd turned out to be 260000 nM and the “affinity compared with the original peptide, in words” value is given as “greatly degreased affinity”.
Consider `CC(C)C[C@@H]1NC(=O)[C@H](CC(N)=O)NC(=O)CNC(=O)[C@H](CCCNC(=N)N)NC(=O)[C@H]([C@@H](C)O)NC(=O)[C@H](Cc2ccc(O)cc2)NC(=O)[C@H]([C@@H](C)O)NC(=O)[C@@H](NC(=O)[C@@H](N)CC(=O)O)CSSC[C@@H](C(=O)N[C@H](C(N)=O)[C@@H](C)O)NC(=O)[C@H](Cc2c[nH]c3ccccc23)NC(=O)[C@H](C(C)C)NC1=O` [GFc-C35-3/15 (N8R), DCTYTRGNLVWCT] (H-DCTYTRGNLVWCT-NH2; disulfide 2-12), for which the Kd came to 8000 nM and the “affinity compared with the original peptide, in words” value is “greatly increased affinity”. The “fold increase in affinity (fold decrease in Kd value)” value (relative to original peptide GFc-C35-3/15) is listed as “approximately 18 fold”.
